Source: patent publication US20130196960A1, “Cannabinoid Receptor Agonists” (Ironwood Pharmaceuticals, Inc., priority 2010, published 2013)
Read-outs that look alike come from different tables or passages of the source.

Key:
[1] = target: T1, human CB2 (Homo sapiens, UniProt P34972); assay: 35S GTPγS binding functional assay, agonist mode, hCB2 HEK-293 membranes; type: biochemical
Description: Functional assays which monitor G-protein coupled receptor or downstream cellular responses can be used to characterize potential CB1 receptor and/or CB2 receptor agonist or antagonist activities. Direct activation (or inhibition of activation) can be monitored using a GTPγS assay (membrane-based assay) or cAMP assay (whole cell-based assay).
^35S GTPγS binding assays were performed by incubating recombinant cell membranes prepared above (5 μg) in the presence of scintillation proximity assay beads (SPA beads, Catalog #RPNQ0252 GE Healthcare, Buckinghamshire, England) in GTPγS binding buffer [50 mM HEPES (pH 7.4), 100 mM NaCl, 5 mM MgCl2, 0.001% saponin (Sigma catalog #S4521)] supplemented with 20 uM GDP (Sigma catalog #G7127) in the presence or absence of test compound. The reaction was carried out in 96-well microplates with 0.1 nM [^35S]GTPγS (specific activity=1250 Ci/mmol; Perkin Elmer catalog #NEG030X250UC) in a final volume of 100 uL. After a 90 min room temperature incubation, the reaction was analyzed using a scintillation counter (Perkin Elmer Microbeta instrument). Binding data were analyzed using GraphPad Prism.

[2] = target: human CB1 (Homo sapiens, UniProt P21554); assay: Human CB1 cannabinoid receptor radioligand binding assay ([3H]-CP 55,940 displacement, HEK-293 membranes)
Excerpt: (§1) cDNA expression clones for human CB1 (hCB1, Genbank Accession No. AY225225) and human CB2 (hCB2, Genbank Accession No. AY242132) expressed in vector pcDNA3.1+ were purchased from UMR cDNA Resource Center, Rolla, Mo. (Clone ID CNR01L000 for hCB1; CNR0200000 for hCB2).
(§2) Stable, HEK-293-derived cell lines that recombinantly express hCB1 or hCB2 were established. In brief, the clone hCB1 (CNR1L) or hCB2 (CNR2) was transfected into human embryonic kidney cells (HEK-293) using Lipofectamine 2000 (Gibco, Cat#11668-019) according to the manufacturer's protocol. Transfected clones were isolated by single colony purification and clones were screened for receptor expression using a whole cell, 3H-CP 55,940 radioligand binding assay. HEK-293 stable cells were maintained in Dulbecco's modified Eagles medium (DMEM) containing 10% fetal bovine serum, 2 mM L-glutamine and 0.5 mg/mL G-418.
(§3) Membranes were isolated from transfected cells as follows. Monolayers of cultured cells were washed twice with phosphate-buffered saline (PBS). Cells were scraped into 20 mM HEPES, pH 7.4, 10 mM EDTA containing complete cocktail protease inhibitors (Roche, Catalog #11 697 498 001), and were homogenized by an electric-powered mechanical probe homogenizer (Omni GLH; probe G7-195S) for 40 seconds at 7000 rpm. Homogenates were centrifuged 10 minutes at 1000×g at 4° C. The supernatant was collected and was centrifuged for 1 hour at 40,000×g. The supernatant was then decanted and the resulting pellet was re-suspended in 20 mM HEPES, pH 7.4, 5 mM MgCl2, 1 mM EDTA, 10% sucrose with complete cocktail protease inhibitors. Protein concentration of membrane suspensions were measured by Bradford Protein Assay using bovine serum albumin as the standard (BioRad catalog #500-0006). Protein concentrations of membrane suspensions were adjusted with the final buffer in the range of 5 to 10 mg/mL and were stored at −80° C. until further use.
(§4) Radioligand binding assays were performed by incubating membranes (2-10 μg protein) prepared from HEK-293 cells expressing recombinant human cannabinoid receptors, CB1 or CB2, at room temperature with 0.5 nM cannabinoid receptor agonist, [3H]-CP 55,940 (Perkin Elmer, catalog #NET1051) in 0.2 mL of binding buffer (50 mM Tris-HCl, pH 7.5, 5 mM MgCl2, 2.5 mM EDTA) and 0.1% fatty acid free bovine serum albumin (Sigma Cat. #A0821) for 90 minutes. A rapid filtration technique using Millipore FB filter plates (Catalog #MADVNOB) and filtration apparatus (Millipore system Catalog MAVM0960R) with vacuum aspiration was used to harvest and rinse labeled membranes (8 times with 0.2 mL of chilled binding buffer). The radioactivity bound to the filters was counted with 0.05 mL of liquid scintillant (UltraGold MV, PerkinElmer catalog #6013159) in a scintillation counter (Perkin Elmer Microbeta instrument). Nonspecific binding was determined in the presence of unlabeled 1 μM CP 55,940 (Sigma Aldrich, catalog #C1112). Binding data were analyzed using GraphPad Prism (GraphPad Software, Inc. San Diego, Calif.).

[3] = target: T1, human CB2; assay: Human CB2 cannabinoid receptor radioligand binding assay ([3H]-CP 55,940 displacement, HEK-293 membranes)
Excerpt: as §1, §2, §3, §4

[4] = test system: mouse; assay: Phenylbenzoquinone-induced (PBQ) writhing model; conditions: dose 30 (unit not given), route IP, P < 0.001
[5] = GTPγS agonist mode, HEK-293 membranes, read-out: hCB2 EC50 (GTPyS ag, nM, HEK)
[6] = read-out: hCB1 IC50 (CP displ, nM, HEK), CP 55,940 displacement, HEK-293 membranes
[7] = read-out: hCB2 IC50 (CP displ, nM, HEK), CP 55,940 displacement, HEK-293 membranes
[8] = CP 55,940 displacement, HEK-293 membranes, read-out: hCB1 IC50 (CP displ, nM, HEK)
[9] = CP 55,940 displacement, HEK-293 membranes, read-out: hCB2 IC50 (CP displ, nM, HEK)
[10] = read-out: hCB2 EC50 (GTPyS ag, nM, HEK), GTPγS agonist mode, HEK-293 membranes

T1 sequence (P34972 whole entry): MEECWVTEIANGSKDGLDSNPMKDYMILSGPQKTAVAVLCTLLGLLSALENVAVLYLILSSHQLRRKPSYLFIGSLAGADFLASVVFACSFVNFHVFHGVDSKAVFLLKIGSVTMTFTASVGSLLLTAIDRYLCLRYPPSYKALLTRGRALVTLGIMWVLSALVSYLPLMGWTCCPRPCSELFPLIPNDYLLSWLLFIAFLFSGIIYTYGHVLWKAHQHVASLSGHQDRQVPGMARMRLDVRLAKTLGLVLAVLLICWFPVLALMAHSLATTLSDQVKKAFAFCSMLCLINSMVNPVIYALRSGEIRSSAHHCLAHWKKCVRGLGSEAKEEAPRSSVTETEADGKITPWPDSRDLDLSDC
human CB1, sequence (P21554 whole entry): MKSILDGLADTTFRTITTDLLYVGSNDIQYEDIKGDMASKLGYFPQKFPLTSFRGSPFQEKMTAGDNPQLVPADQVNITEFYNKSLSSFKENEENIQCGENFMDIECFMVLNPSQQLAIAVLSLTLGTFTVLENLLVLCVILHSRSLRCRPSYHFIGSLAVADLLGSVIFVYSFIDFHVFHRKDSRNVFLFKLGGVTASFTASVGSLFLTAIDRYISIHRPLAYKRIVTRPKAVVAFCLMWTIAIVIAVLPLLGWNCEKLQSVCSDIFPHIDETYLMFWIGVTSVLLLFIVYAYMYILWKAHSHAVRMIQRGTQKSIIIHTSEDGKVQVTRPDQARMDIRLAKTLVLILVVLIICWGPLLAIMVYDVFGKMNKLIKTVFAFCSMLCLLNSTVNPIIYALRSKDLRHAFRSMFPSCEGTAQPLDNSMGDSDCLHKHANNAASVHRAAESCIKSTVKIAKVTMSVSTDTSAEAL

SMILES: Cc1c(C(=O)c2cccc(Cl)c2Cl)c2ccsc2n1CC1CCCCN1C (centres unmarked) [Compound I-20]
- EC50 [1, 5]: < 100 nM
- IC50 [2, 6]: < 100 nM
- IC50 [3, 7]: < 100 nM

SMILES: Cc1c(C(=O)c2cccc(Cl)c2Cl)c2sccc2n1CCN1CCOCC1 [Compound I-5]
- EC50 [1, 5]: < 100 nM
- IC50 [2, 6]: 1000 to 10000 nM
- IC50 [3, 7]: < 100 nM

SMILES: Cc1c(C(=O)c2ccc(Cl)cc2Cl)c2ccsc2n1CCN1CCOCC1 [Compound I-15]
- EC50 [1, 5]: 100 to 1000 nM
- IC50 [2, 6]: > 10000 nM
- IC50 [3, 7]: 100 to 1000 nM

SMILES: Cc1c(C(=O)c2cccc(Cl)c2Cl)c2ccsc2n1CCC1CCN(C(=O)OC(C)(C)C)CC1 [Compound I-22]
- IC50 [2, 8]: > 10000 nM
- IC50 [3, 9]: > 10000 nM

SMILES: CCCn1c(C)c(C(=O)c2cccc(Cl)c2Cl)c2ccsc21 [Compound I-2]
- EC50 [1, 5]: < 100 nM
- IC50 [2, 6]: > 10000 nM
- IC50 [3, 7]: 100 to 1000 nM

SMILES: Cc1c(C(=O)c2cccc(Cl)c2Cl)c2ccsc2n1CC1CCOCC1 [Compound I-23]
- EC50 [1, 5]: < 100 nM
- IC50 [2, 6]: 1000 to 10000 nM
- IC50 [3, 7]: < 100 nM

SMILES: Cc1c(C(=O)c2cccc(F)c2F)c2ccsc2n1CCN1CCOCC1 [Compound I-11]
- EC50 [1, 5]: 100 to 1000 nM
- IC50 [2, 6]: > 10000 nM
- IC50 [3, 7]: 1000 to 10000 nM

SMILES: Cc1c(C(=O)c2cccc(Cl)c2Cl)c2ccsc2n1CCC1CCOCC1 [Compound I-9]
- EC50 [1, 5]: < 100 nM
- IC50 [2, 6]: 100 to 1000 nM
- IC50 [3, 7]: < 100 nM

SMILES: CCn1c(C)c(C(=O)c2cccc(Cl)c2Cl)c2ccsc21 [Compound I-30]
- EC50 [1, 10]: 100 to 1000 nM
- IC50 [2, 6]: > 10000 nM
- IC50 [3, 7]: 1000 to 10000 nM

SMILES: CCS(=O)(=O)n1c(C)c(C(=O)c2cccc(Cl)c2Cl)c2ccsc21 [Compound I-21]
- IC50 [2, 8]: > 10000 nM
- IC50 [3, 9]: 1000 to 10000 nM

SMILES: Cc1c(C(=O)c2cccc(Cl)c2)c2ccsc2n1CCN1CCOCC1 [Compound I-12]
- IC50 [2, 6]: 1000 to 10000 nM
- IC50 [3, 7]: 1000 to 10000 nM

SMILES: Cc1c(C(=O)c2ccccc2)c2ccsc2n1CCN1CCOCC1 [Compound I-31]
- IC50 [2, 6]: > 10000 nM
- IC50 [3, 7]: > 10000 nM

SMILES: Cc1c(C(=O)c2cccc(Cl)c2Cl)c2ccsc2n1CCN1CCCCC1 [Compound I-17]
- EC50 [1, 5]: < 100 nM
- IC50 [2, 6]: 1000 to 10000 nM
- IC50 [3, 7]: < 100 nM

SMILES: COCCn1c(C)c(C(=O)c2cccc(Cl)c2Cl)c2ccsc21 [Compound I-10]
- EC50 [1, 5]: 100 to 1000 nM
- IC50 [2, 6]: > 10000 nM
- IC50 [3, 7]: 100 to 1000 nM

SMILES: Cc1c(C(=O)c2cccc(Cl)c2Cl)c2ccsc2n1CC(=O)N1CCOCC1 [Compound I-18]
- EC50 [1, 10]: 100 to 1000 nM
- IC50 [2, 6]: > 10000 nM
- IC50 [3, 7]: 100 to 1000 nM

SMILES: Cc1c(C(=O)c2cccc(Cl)c2Cl)c2cc(Cl)sc2n1CCN1CCOCC1 [Compound I-19]
- EC50 [1, 5]: 100 to 1000 nM
- IC50 [2, 6]: 1000 to 10000 nM
- IC50 [3, 7]: < 100 nM

SMILES: Cc1c(C(=O)c2cccc(Cl)c2Cl)c2scnc2n1CCN1CCOCC1 [Compound I-3]
- EC50 [1, 5]: < 100 nM
- IC50 [2, 6]: 1000 to 10000 nM
- IC50 [3, 7]: < 100 nM

SMILES: CCCn1c(C)c(C(=O)c2cccc(Cl)c2Cl)c2scnc21 [Compound I-4]
- EC50 [1, 5]: < 100 nM
- IC50 [2, 6]: > 10000 nM
- IC50 [3, 7]: 100 to 1000 nM

SMILES: Cc1c(C(=O)C2CCCCC2)c2ccsc2n1CCN1CCOCC1 [Compound I-24]
- EC50 [1, 5]: 100 to 1000 nM
- IC50 [2, 6]: 1000 to 10000 nM
- IC50 [3, 7]: 100 to 1000 nM

SMILES: Cc1c(C(=O)c2cccc(Cl)c2Cl)c2ccsc2n1CCN1CCOCC1 [Compound I-1, (2,3-dichlorophenyl)(5-methyl-6-(2-morpholinoethyl)-6H-thieno[2,3-b]pyrrol-4-yl)methanone]
- EC50 [1]: < 100 nM
- Number of Writhes [4]: 1.5 ± 0.79
- IC50 [2]: 1000 to 10000 nM
- IC50 [3]: < 100 nM

SMILES: Cc1c(C(=O)C2C(C)(C)C2(C)C)c2ccsc2n1CCN1CCOCC1 [Compound I-8]
- EC50 [1, 5]: < 100 nM
- IC50 [2, 6]: 1000 to 10000 nM
- IC50 [3, 7]: 100 to 1000 nM

SMILES: CCCOc1ccccc1C(=O)c1c(C)n(CCN2CCOCC2)c2sccc12 [Compound I-27]
- IC50 [2, 6]: > 10000 nM
- IC50 [3, 7]: 1000 to 10000 nM

SMILES: Cc1c(C(=O)c2cccc3c2OCC3)c2ccsc2n1CCN1CCOCC1 [Compound I-14]
- EC50 [1, 5]: 100 to 1000 nM
- IC50 [2, 6]: 1000 to 10000 nM
- IC50 [3, 7]: 100 to 1000 nM

SMILES: Cc1c(C(=O)c2cccnc2Cl)c2ccsc2n1CCN1CCOCC1 [Compound I-28]
- IC50 [2, 6]: > 10000 nM
- IC50 [3, 7]: 1000 to 10000 nM

SMILES: CCCn1c(C)c(C(=O)c2ccccc2)c2ccsc21 [Compound I-7]
- IC50 [2, 8]: > 10000 nM
- IC50 [3, 9]: > 10000 nM

SMILES: Cc1c(C(=O)c2cccc(Cl)c2Cl)c2ccsc2n1CCC1CCN(C)CC1 [Compound I-25]
- IC50 [2, 6]: > 10000 nM
- IC50 [3, 7]: > 10000 nM
